The results in this text go back to patent US20070281330A1, “Method for Examining the Activity of Ion Channels” (priority 2004, published 2007).

One assay addresses sodium channel SCN5a (Homo sapiens, UniProt Q14524). Type of assay: cell-based.
Another assay concerns the target T1, Kv1.3 (Homo sapiens, UniProt P22001).
T1 construct: expressed in transfected cells
The assay is described as follows: FMP membrane potential assay on Kv1.3, suspension cells. The format is cell-based. The settings on record: 100 nM Margatoxin, FMP dye.

[1] abbreviates: 110 min 1° C. (after 10 min room temperature).

Values joined by “and” are separate entries in the source; they are usually repeats but may differ in a detail not shown here. Identical values can stand only once.

T1 sequence (P22001 whole entry): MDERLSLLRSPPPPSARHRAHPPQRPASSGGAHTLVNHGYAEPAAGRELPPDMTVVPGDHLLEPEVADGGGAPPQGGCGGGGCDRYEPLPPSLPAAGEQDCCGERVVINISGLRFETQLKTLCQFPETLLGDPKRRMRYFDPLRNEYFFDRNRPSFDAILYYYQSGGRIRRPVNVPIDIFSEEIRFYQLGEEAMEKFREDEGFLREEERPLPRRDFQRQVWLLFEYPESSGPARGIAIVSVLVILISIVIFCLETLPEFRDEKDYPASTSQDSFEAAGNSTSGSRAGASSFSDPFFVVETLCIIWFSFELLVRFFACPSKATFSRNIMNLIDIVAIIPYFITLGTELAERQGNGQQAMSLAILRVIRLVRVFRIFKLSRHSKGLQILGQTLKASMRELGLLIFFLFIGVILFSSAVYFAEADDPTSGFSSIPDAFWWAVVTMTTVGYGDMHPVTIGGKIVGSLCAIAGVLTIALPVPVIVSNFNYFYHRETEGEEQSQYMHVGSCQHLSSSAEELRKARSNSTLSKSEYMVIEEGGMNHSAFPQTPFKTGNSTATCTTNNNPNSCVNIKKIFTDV
Sequence of sodium channel SCN5a (Q14524 whole entry, looked up): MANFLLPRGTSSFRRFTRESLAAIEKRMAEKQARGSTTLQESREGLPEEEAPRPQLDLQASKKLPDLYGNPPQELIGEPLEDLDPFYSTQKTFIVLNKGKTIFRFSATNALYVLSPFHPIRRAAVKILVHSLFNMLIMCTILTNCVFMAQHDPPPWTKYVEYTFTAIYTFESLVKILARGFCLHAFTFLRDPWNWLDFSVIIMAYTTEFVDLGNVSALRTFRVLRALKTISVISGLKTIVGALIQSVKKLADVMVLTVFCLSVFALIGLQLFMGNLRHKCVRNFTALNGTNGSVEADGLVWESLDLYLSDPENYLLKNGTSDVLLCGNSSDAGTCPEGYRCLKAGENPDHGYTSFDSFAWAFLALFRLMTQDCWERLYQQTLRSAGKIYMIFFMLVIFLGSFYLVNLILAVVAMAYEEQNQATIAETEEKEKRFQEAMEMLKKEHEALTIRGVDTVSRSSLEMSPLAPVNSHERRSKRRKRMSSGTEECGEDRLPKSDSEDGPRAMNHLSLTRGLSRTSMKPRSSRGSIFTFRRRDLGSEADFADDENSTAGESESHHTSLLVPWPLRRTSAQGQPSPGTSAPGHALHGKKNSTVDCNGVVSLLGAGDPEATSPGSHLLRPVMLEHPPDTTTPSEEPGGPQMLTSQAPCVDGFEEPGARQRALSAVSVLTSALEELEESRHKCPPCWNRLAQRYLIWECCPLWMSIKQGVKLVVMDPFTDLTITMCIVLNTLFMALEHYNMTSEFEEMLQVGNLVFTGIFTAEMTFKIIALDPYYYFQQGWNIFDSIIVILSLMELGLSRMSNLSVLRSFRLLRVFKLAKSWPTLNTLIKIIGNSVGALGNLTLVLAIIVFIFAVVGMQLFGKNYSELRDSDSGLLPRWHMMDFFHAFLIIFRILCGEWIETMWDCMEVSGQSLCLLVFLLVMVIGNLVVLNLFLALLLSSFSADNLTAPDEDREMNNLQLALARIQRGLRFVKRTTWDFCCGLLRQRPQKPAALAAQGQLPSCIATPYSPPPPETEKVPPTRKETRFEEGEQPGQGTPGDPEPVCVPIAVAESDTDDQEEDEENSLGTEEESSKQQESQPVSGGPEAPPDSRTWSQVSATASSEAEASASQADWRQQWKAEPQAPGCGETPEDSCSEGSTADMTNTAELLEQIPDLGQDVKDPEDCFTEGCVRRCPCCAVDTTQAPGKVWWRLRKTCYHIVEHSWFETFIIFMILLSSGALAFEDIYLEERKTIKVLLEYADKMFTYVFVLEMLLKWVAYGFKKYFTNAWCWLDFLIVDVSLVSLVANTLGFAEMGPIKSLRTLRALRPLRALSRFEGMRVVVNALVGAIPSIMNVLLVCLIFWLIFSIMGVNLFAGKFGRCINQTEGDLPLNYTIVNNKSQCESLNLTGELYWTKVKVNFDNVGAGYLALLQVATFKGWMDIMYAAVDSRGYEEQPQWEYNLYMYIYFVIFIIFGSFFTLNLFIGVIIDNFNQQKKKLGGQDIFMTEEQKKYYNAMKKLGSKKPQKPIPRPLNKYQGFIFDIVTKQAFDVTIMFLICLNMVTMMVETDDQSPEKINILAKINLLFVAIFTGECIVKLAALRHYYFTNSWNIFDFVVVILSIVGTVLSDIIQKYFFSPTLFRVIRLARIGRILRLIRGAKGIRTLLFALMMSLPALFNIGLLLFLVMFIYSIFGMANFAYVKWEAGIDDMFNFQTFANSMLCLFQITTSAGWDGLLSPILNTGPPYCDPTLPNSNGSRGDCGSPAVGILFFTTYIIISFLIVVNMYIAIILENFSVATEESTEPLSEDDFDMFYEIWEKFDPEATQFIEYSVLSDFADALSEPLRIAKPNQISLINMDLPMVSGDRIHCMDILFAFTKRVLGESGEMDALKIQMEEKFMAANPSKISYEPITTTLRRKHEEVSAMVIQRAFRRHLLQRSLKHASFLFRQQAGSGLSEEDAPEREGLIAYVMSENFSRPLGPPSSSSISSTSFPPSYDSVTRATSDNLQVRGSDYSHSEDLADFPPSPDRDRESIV

As to `NC1=N[C@H](O)[C@H]2[C@H]3O[C@]4(O)O[C@@H]([C@@H](O)[C@@]2(N1)[C@@H]4O)[C@]3(O)CO` [TTX, tetrodotoxin], the “18° C. [RFUs]” value on sodium channel SCN5a is 4636.0 RFUs and 5379.0 RFUs and 2882.0 RFUs and 3816.0 RFUs and 4067.0 RFUs and 4401.0 RFUs and 5620.0 RFUs and 5034.0 RFUs.
Regarding Margatoxin, the “Increase [%]” value on Kv1.3 (10 min room temperature) was 3% and 2.93%; at Kv1.3 (setting [1]), 68% and 68.04%. In addition, the figures for the “[rfu]” value at Kv1.3 (10 min room temperature) and on Kv1.3 (setting [1]) were 22479.50 rfu and 47474.00 rfu, respectively.
